Laboratory results reported in patent publication US8536208B2, “Antifungal composition” (Basilea Pharmaceutica AG, priority 2007, dated 2013).

Assay: Single dose bioavailability study on fasted subjects
Conditions: human, in vivo, Galenical formulation Example 4 (composition 2.3)
Protocol: A single dose bioavailability study is conducted on N fasted subjects using the composition of this Example (N=7, dose of compound I-A 433.3 mg corresponding to 400 mg free base of formula I-B), and the same amount in powder form filled into hard capsules, (N=6). BAL8557, a water-soluble prodrug of the compound of formula I-B according to EP-A-1 280 795, is used as a standard (capsule comprising BAL 8557 in powder form in an amount corresponding to 400 mg free base of formula I-B; N=3).

[1] = single oral dose 433.3 mg I-A (400 mg free base I-B), N=7

bioavailability (433.3 mg, single oral dose equal to 400 mg free base I-B, BAL 8557 as standard, read-out: Frel (relative bioavailability)): 90% | Cmax [1]: 4410 ng/mL | Tmax [1]: 1.5 h | half-life [1]: 88 h | AUC (single oral dose 433.3 mg I-A (400 mg free base I-B), N=7, read-out: AUCinfinite): 193 µg·h/mL
SMILES: C[C@@H](c1nc(-c2ccc(C#N)cc2)cs1)[C@](O)(Cn1cncn1)c1cc(F)ccc1F.Cl [Compound I-A]
